Data reported in US20170372030A9, “METHOD AND APPARATUS FOR COMPUTER MODELING OF THE INTERACTION BETWEEN AND AMONG CORTICAL AND SUBCORTICAL AREAS IN THE HUMAN BRAIN FOR THE PURPOSE OF PREDICTING THE EFFECT OF DRUGS IN PSYCHIATRIC AND COGNITIVE DISEASES” (priority 2005, published 2017).
Read-outs that look alike come from different tables or passages of the source.

Legend:
[1] = test system: fast Na+ channel, persistent Na+ channel, L-type Ca++ channel; settings: saturating dose of 5HT (1 μM); cited from earlier work
5HT-Transporter = 5HT-Transporter (Homo sapiens, UniProt P31645); settings: read-out: Km of 5HT-Transporter; cited from earlier work
Sequence of 5HT-Transporter (P31645 whole entry): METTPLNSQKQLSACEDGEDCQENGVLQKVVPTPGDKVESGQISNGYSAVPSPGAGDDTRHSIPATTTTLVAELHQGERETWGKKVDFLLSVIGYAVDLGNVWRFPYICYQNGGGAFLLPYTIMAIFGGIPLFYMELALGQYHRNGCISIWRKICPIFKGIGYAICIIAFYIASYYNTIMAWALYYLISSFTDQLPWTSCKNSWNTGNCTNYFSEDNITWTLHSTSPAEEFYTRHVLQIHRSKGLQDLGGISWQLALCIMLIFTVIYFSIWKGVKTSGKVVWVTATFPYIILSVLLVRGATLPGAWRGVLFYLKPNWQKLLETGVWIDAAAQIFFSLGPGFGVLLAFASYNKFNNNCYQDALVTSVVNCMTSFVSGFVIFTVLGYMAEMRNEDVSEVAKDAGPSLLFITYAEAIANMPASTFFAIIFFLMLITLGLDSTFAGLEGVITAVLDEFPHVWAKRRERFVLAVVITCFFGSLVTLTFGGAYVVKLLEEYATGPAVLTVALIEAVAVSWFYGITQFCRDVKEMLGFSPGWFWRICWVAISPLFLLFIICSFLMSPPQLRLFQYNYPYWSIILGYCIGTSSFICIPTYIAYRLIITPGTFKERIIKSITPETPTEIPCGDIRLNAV

[2] = biological target: receptors of the 5HT1 class; settings: read-out: high-affinity binding for serotonin; cited from earlier work
5HT1b/d autoreceptor = settings: cited from earlier work; for decrease of free 5HT: maximal stimulation of 5HT1b/d autoreceptor
D2-R [3] = biological target: T1, D2-R (Homo sapiens, UniProt P14416); test: Drug and tracer binding affinity and on/off rates at the D2-R (Table 1); settings: calculated as kon × Kd
T1 sequence (P14416 whole entry): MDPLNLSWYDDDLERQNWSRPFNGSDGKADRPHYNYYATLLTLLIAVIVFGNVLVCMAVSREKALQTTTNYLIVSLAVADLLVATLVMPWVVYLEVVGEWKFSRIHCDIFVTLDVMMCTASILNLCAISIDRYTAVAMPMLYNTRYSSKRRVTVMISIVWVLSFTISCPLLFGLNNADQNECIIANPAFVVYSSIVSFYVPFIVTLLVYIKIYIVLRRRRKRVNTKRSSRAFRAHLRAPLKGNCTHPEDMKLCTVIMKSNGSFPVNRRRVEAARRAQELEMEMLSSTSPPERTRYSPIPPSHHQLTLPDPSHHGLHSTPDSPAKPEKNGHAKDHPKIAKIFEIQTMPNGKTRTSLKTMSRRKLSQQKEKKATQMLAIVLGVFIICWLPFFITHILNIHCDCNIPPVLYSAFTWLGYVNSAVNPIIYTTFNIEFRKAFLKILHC

D2-R [4] = biological target: T1, D2-R; settings: cited from earlier work
5HT2C receptor = biological target: T2, 5HT2C receptor (Rattus norvegicus, UniProt P08909); settings: microdialysis, maximal effect; cited from earlier work
T2 construct: from tissue; host or cells: brain in vivo (microdialysis), value quoted from the literature
T2 sequence (P08909 33-460): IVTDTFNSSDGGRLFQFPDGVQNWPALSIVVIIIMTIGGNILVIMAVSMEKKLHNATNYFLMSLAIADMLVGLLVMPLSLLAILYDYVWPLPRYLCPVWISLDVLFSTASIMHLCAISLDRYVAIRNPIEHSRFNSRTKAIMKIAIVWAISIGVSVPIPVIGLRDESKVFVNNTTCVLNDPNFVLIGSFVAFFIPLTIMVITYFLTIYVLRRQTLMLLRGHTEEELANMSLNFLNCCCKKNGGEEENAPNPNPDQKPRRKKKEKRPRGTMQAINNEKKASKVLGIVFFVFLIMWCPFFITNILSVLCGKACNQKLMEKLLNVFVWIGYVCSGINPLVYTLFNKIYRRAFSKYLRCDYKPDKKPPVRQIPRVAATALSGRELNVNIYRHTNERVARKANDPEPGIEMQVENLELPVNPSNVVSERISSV

alpha 1-adrenoreceptor [5] = settings: nonspiking regions, human cortical membranes; read-out: affinity; cited from earlier work
alpha 1-adrenoreceptor [6] = settings: normal rat brain in vivo, cited from earlier work
α2 adrenergic receptors = settings: full stimulation of α2 receptors; cited from earlier work
α2-R = settings: read-out: Ki for NE at the α2-R; cited from earlier work
[7] = test system: Norepinephrine Transporter (NET); settings: rat jejunum, cited from earlier work
NET = biological target: T3, NET (Rattus norvegicus, UniProt Q63380); settings: blocking the NET; cited from earlier work
T3 construct: from tissue
T3 sequence (Q63380 1-617): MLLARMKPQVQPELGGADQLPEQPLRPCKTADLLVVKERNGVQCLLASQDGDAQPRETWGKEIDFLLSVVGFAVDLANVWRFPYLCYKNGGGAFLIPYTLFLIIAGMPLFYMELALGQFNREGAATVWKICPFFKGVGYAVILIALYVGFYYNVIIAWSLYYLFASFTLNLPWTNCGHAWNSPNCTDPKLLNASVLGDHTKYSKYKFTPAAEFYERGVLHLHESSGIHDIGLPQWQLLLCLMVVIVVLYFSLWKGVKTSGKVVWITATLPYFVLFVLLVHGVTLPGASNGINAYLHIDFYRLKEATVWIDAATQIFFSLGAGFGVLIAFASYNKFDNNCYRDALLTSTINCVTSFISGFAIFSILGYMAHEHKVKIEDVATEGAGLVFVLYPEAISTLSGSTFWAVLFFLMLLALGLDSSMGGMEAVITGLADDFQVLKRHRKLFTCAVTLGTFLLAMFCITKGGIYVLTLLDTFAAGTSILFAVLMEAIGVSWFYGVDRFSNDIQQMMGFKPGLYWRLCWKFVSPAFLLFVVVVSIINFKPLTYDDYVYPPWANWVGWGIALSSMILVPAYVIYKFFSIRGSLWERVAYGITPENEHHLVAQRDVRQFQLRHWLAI

Structure (SMILES): NCCc1c[nH]c2ccc(O)cc12 [5HT, serotonin]
- decrease of maximum conductance of fast Na+, persistent Na+ and L-type Ca++ channel [1]: 20%
- Km (5HT-Transporter): 0.34 µM
- Kd [2]: ~15 nM

Structure (SMILES): O=c1ccc2[nH]cc(C3=CCNCC3)c2[nH]1 [CP93,129]
- decrease of free 5HT (5HT1b/d autoreceptor): 45%

Structure (SMILES): CN1CCC[C@@H]1Cc1c[nH]c2ccc(Nc3ncccc3[N+](=O)[O-])cc12 [CP135,807]
- decrease of free 5HT (5HT1b/d autoreceptor): 45%

Structure (SMILES): CCN1CCC[C@H]1CNC(=O)c1c(OC)ccc(I)c1O [IBZM]
- Koff (D2-R [3]): 0.0176 s⁻¹
- Kd (D2-R [4]; tracer, read-out: affinity of tracer for the D2-R): 160 nM

Structure (SMILES): Cc1nc2n(c(=O)c1CCN1CCC(c3noc4cc(F)ccc34)CC1)CCCC2O (stereo not drawn) [Paliperidone]
- Kd (D2-R [4]; at the D2-R, read-out: Kd): 4.1 nM

Structure (SMILES): C[C@H](N)Cn1ccc2cc(F)c(Cl)cc21 [Ro-60-0175]
- maximal reduction of free DA (5HT2C receptor): 30%

Structure (SMILES): COc1cc2nc(N3CCN(C(=O)c4ccco4)CC3)nc(N)c2cc1OC [[^3H]prazosin, prazosin]
- Kd (alpha 1-adrenoreceptor [5]): 0.17 nM

Structure (SMILES): O=C1c2ccccc2CCC1CNCCc1ccc(O)c(I)c1 (stereo not drawn) [[^125I]HEAT, [^125I]iodo-2-[beta-(4-hydroxyphenyl)ethylaminomethyl]]
- Kd (alpha 1-adrenoreceptor [6]; read-out: Kd (half-saturation constant), high-affinity site): 3.6 nM
- Kd (alpha 1-adrenoreceptor [6]; read-out: Kd, low-affinity site): 668 nM

Structure (SMILES): Clc1cccc(Cl)c1N=C1NCCN1 [clonidine]
- reduction of 5HT firing (and subsequent PFC 5HT release) (α2 adrenergic receptors): 45%

Structure (SMILES): CC(C)NCC(O)COc1ccccc1-n1cccc1 (stereo not drawn) [isamoltane]
- increase of free 5HT (5HT1b/d autoreceptor; maximal block of 5HT1b/d autoreceptor): 50%

Structure (SMILES): NC[C@H](O)c1ccc(O)c(O)c1 [norepinephrine]
- Ki (α2-R): 996 nM
- Km ([7]; read-out: Km, low-affinity component (uptake 2)): 111 µM
- Km ([7]; read-out: Michaelis constant (Km), high-affinity component (uptake 1)): 1.72 µM

Structure (SMILES): COc1ccc(C(CN(C)C)C2(O)CCCCC2)cc1 (stereo not drawn) [venlafaxine]
- NE increase in cortex (NET): 498%
